For seven test systems, surviving fraction results are on record in the supplement of paper PMC6045584.

Compound in assay [1]: C[C@@H]1CN(CC(=O)Nc2ccc3c(c2)Cc2cccc(-c4cc(=O)cc(N5CCOCC5)o4)c2S3)C[C@H](C)O1
Description: surviving fraction relative to DMSO-only wells; higher = less growth inhibition. The following applies: exposure time: 5 days. In outline:
(§1)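 Luminescence normalised to the median of DMSO-only wells defines surviving fraction, with viability read by CellTiter-Glo. Signal was recorded after 10 minutes at room temperature, once log-phase tumour cell lines seeded at 250–500 cells per well in 384-well plates had spent 24 hours settling and then five days under continuous exposure to inhibitors at 0.5, 1, 5, 10, 50, 100, 500 and 1000 nM.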

Compound in assay [2]: COc1ccc(-c2cc3c(C)nc(N)nc3n([C@H]3CC[C@H](OCCO)CC3)c2=O)cn1
The assay is described as above. As to conditions: exposure time: 5 days. In outline: as §1

± gives the standard deviation of the averaged measurements.

With HCC38 BREAST, the surviving fraction turned out to be 0.973 ± 0.15 in assay [1] (0.5 nM); 0.988 ± 0.11 in assay [1] (1 nM); 1.08 ± 0.19 in assay [1] (5 nM); 1.02 ± 0.17 in assay [1] (10 nM); 0.698 ± 0.23 in assay [1] (50 nM); 0.631 ± 0.086 in assay [1] (100 nM). Besides, the surviving fraction was determined as 0.418 ± 0.12 in assay [1] (500 nM); 0.391 ± 0.06 in assay [1] (1000 nM); 0.974 ± 0.14 in assay [2] (0.5 nM); 1.13 ± 0.17 in assay [2] (1 nM); 1.21 ± 0.02 in assay [2] (5 nM); 1.08 ± 0.069 in assay [2] (10 nM). In addition, the surviving fraction was determined as 1.14 ± 0.14 in assay [2] (50 nM), 1.01 ± 0.34 in assay [2] (100 nM), 0.409 ± 0.083 in assay [2] (500 nM) and 0.223 ± 0.046 in assay [2] (1000 nM).
On to HMLE3 BREAST, for which the surviving fraction in assay [1] (0.5 nM) worked out at 1 ± 0.041; in assay [1] (1 nM) it was 0.914 ± 0.069; in assay [1] (5 nM) it was 0.985 ± 0.082; in assay [1] (10 nM), 0.954 ± 0.042; in assay [1] (50 nM), 1 ± 0.058; in assay [1] (100 nM) it was 0.949 ± 0.12. Moreover, the surviving fraction came to 0.918 ± 0.024 in assay [1] (500 nM); 0.807 ± 0.047 in assay [1] (1000 nM); 0.914 ± 0.04 in assay [2] (0.5 nM); 0.918 ± 0.061 in assay [2] (1 nM); 0.858 ± 0.12 in assay [2] (5 nM); 0.83 ± 0.035 in assay [2] (10 nM). In addition, the surviving fraction in assay [2] (50 nM) stood at 0.611 ± 0.043; in assay [2] (100 nM) it was 0.446 ± 0.024; in assay [2] (500 nM) it was 0.121 ± 0.01; in assay [2] (1000 nM), 0.0777 ± 0.0064.
G292 BONE: the surviving fraction came to 0.9787 ± 0.009 in assay [1] (0.5 nM); 1.03 ± 0.026 in assay [1] (1 nM); 0.995 ± 0.026 in assay [1] (5 nM); 1 ± 0.046 in assay [1] (10 nM); 0.994 ± 0.03 in assay [1] (50 nM); 0.977 ± 0.034 in assay [1] (100 nM). In addition, the surviving fraction in assay [1] (500 nM) stood at 0.856 ± 0.053; in assay [1] (1000 nM), 0.764 ± 0.017; in assay [2] (0.5 nM), 0.951 ± 0.026; in assay [2] (1 nM) it was 0.971 ± 0.037; in assay [2] (5 nM) it was 0.853 ± 0.042; in assay [2] (10 nM), 0.78 ± 0.011. The surviving fraction in assay [2] (50 nM) was determined as 0.422 ± 0.027; in assay [2] (100 nM) it was 0.305 ± 0.013; in assay [2] (500 nM), 0.124 ± 0.003; in assay [2] (1000 nM), 0.0955 ± 0.001.
HS578T BREAST: the surviving fraction in assay [1] (0.5 nM) is 0.996 ± 0.12; in assay [1] (1 nM), 0.965 ± 0.14; in assay [1] (5 nM) it was 0.861 ± 0.04; in assay [1] (10 nM), 0.883 ± 0.052; in assay [1] (50 nM), 0.855 ± 0.13; in assay [1] (100 nM), 0.814 ± 0.13. The surviving fraction in assay [1] (500 nM) is 0.867 ± 0.089; in assay [1] (1000 nM) it was 0.69 ± 0.042; in assay [2] (0.5 nM), 0.864 ± 0.19; in assay [2] (1 nM), 0.946 ± 0.1; in assay [2] (5 nM), 0.811 ± 0.047; in assay [2] (10 nM) it was 0.759 ± 0.12. The surviving fraction in assay [2] (50 nM) was 0.547 ± 0.048; in assay [2] (100 nM), 0.403 ± 0.028; in assay [2] (500 nM) it was 0.17 ± 0.008; in assay [2] (1000 nM), 0.111 ± 0.004.
HS57T BREAST: the surviving fraction in assay [1] (0.5 nM) came to 1.1 ± 0.058; in assay [1] (1 nM), 1.05 ± 0.055; in assay [1] (5 nM) it was 1.16 ± 0.017; in assay [1] (10 nM), 1.1 ± 0.03; in assay [1] (50 nM), 1.08 ± 0.042; in assay [1] (100 nM), 1.08 ± 0.084. In addition, the surviving fraction is 0.945 ± 0.069 in assay [1] (500 nM); 0.87 ± 0.041 in assay [1] (1000 nM); 0.946 ± 0.059 in assay [2] (0.5 nM); 1.01 ± 0.07 in assay [2] (1 nM); 0.959 ± 0.026 in assay [2] (5 nM); 0.939 ± 0.033 in assay [2] (10 nM). Further, the surviving fraction stood at 0.6 ± 0.023 in assay [2] (50 nM), 0.429 ± 0.034 in assay [2] (100 nM), 0.148 ± 0.004 in assay [2] (500 nM) and 0.117 ± 0.0076 in assay [2] (1000 nM).
With HMT3552 BREAST, the surviving fraction in assay [1] (0.5 nM) was 0.943; in assay [1] (1 nM), 0.938; in assay [1] (5 nM), 0.979; in assay [1] (10 nM) it was 1.01; in assay [1] (50 nM), 0.942; in assay [1] (100 nM), 0.855. For the same test system, the surviving fraction in assay [1] (500 nM) was 0.824; in assay [1] (1000 nM), 0.739; in assay [2] (0.5 nM) it was 0.941; in assay [2] (1 nM), 0.913; in assay [2] (5 nM), 0.883; in assay [2] (10 nM) it was 0.813. In addition, the surviving fraction turned out to be 0.535 in assay [2] (50 nM), 0.279 in assay [2] (100 nM), 0.09 in assay [2] (500 nM) and 0.077 in assay [2] (1000 nM).
On to HCC70 BREAST, for which the surviving fraction in assay [1] (0.5 nM) stood at 1.03 ± 0.038; in assay [1] (1 nM), 1.07 ± 0.092; in assay [1] (5 nM) it was 1.1 ± 0.1; in assay [1] (10 nM) it was 1.14 ± 0.07; in assay [1] (50 nM) it was 1.15 ± 0.044; in assay [1] (100 nM), 1.2 ± 0.037. For the same test system, the surviving fraction in assay [1] (500 nM) came out at 1.1 ± 0.041; in assay [1] (1000 nM), 1.07 ± 0.02; in assay [2] (0.5 nM), 1.01 ± 0.091; in assay [2] (1 nM), 1.02 ± 0.092; in assay [2] (5 nM) it was 1.06 ± 0.097; in assay [2] (10 nM), 0.98 ± 0.026. Moreover, the surviving fraction in assay [2] (50 nM) worked out at 0.623 ± 0.051; in assay [2] (100 nM) it was 0.346 ± 0.011; in assay [2] (500 nM), 0.111 ± 0.036; in assay [2] (1000 nM) it was 0.056 ± 0.0061.
